We go through 9 compounds from US8178534B2, “cMET inhibitors” (Takeda Pharmaceutical Company Limited, priority 2008, dated 2012).

As a reminder, the IC50 is the concentration needed to halve the response being measured. What is called EC50 is the concentration needed to bring the measured effect to its halfway point.

The target of assay [1] is T1, cMET enzyme (amino acids 1023-1360) (Homo sapiens, UniProt P08581).
T1 construct: The cMET enzyme (amino acids 1023-1360) nominally at 24 μM was held at −80° C. until use; His tag (N, cleaved yes); made in house; host or cells: Sf9 cells
T1 sequence (P08581 1023-1360): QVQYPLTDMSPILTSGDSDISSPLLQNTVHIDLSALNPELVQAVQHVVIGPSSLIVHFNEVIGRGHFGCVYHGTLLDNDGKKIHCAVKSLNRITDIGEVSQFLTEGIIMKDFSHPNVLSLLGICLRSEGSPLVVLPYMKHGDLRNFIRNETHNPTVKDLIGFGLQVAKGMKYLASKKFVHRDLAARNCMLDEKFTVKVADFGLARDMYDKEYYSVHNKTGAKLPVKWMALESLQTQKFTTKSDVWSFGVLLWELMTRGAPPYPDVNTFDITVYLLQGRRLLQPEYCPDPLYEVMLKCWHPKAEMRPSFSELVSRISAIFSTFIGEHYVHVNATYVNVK
The assay is described as follows: Determination of inhibition of cMET (capillary electrophoresis, phosphorylated peptide product). It is filed as biochemical. The settings on record: 1.2 nM cMET, 50 μM ATP, 2 μM FL-2 peptide, 2 hours room temperature.

In another assay the test system is MKN45. The assay is described as follows: Inhibition of cell viability (MTS), MKN45. It is filed as cell-based. The note with it: MKN45 cells, 96 hours incubation. The protocol:
(§1) Cells were maintained at 37° C. in a humidified atmosphere containing 5%-8% CO2 following the instructions of the supplier (American Type Culture Collection (Rockville, Md.)). Inhibition of cell viability was determined for a panel of tumor cell lines (MKN45, EBC1 and A549), using the soluble tetrazolium salt, MTS (Promega, Madison, Wis.). Cells were seeded at 2,000-7,500 cells/well in 96-well tissue culture plates and were allowed to attach for approximately 24 hours prior to addition of compounds or DMSO vehicle. […] Cells were treated in duplicate with test compounds. Compounds were serially diluted (1:2.5) from column 1 to 11 and column 12 contained DMSO vehicle. Compounds were diluted into cell growth medium then compound solution was added to cells. Equal amounts of DMSO were added to cells (final concentration is 0.5%). After background correction and normalization against DMSO-treated cells, EC50 values were calculated using non-linear curve-fitting of the cell viability as a function of compound concentration. The MKN45 and EBC1 cell lines contain high levels of phospho-Met and are dependent on cMET for proliferation, whereas the A549 line is used as negative control.
(§2) EC50 values may be calculated by non-linear curve fitting of the compound concentrations and fluorescence intensities to the standard EC50 equation.

The test system of a further assay is EBC1. The assay is described as follows: Inhibition of cell viability (MTS), EBC1. It is filed as cell-based. The settings on record: EBC1 cells, 96 hours incubation. As to the method: as §1, §2
The test system of the next assay is A549. Put plainly: Inhibition of cell viability (MTS), A549 (negative control line). The settings on record: A549 cells (negative control), 96 hours incubation. Format: cell-based. The protocol:
as §1, §2

Turning to `COCc1nc(-c2ccc3nnc(Sc4ccc5nc(NC(=O)C6CC6)cn5n4)n3c2)no1` [Compound 39, N-(6-(6-(5-(methoxymethyl)-1,2,4-oxadiazol-3-yl)-[1,2,4]triazolo[4,3-a]pyridin-3-ylthio)imidazo[1,2-b]pyridazin-2-yl)cyclopropanecarboxamide], the IC50 in assay [1] was in the range of 60 to 100 nM. For the same compound, the EC50 fell in the range of 100 to 249 nM in the assay on MKN45 (Homo sapiens, MKN-45, 96 h); 35 to 99 nM with EBC1 (Homo sapiens, EBC-1, 96 h); 600 to 1600 nM with A549 (Homo sapiens, A549, 96 h).
The corresponding values for `CNC(=O)c1ccc(-c2ccc3nnc(C(C)c4ccc5nc(NC(=O)C6CC6)cn5n4)n3c2)cc1` (stereo not drawn) [Compound 68, 4-(3-(1-(2-(cyclopropanecarboxamido)imidazo[1,2-b]pyridazin-6-yl)ethyl)-[1,2,4]triazolo[4,3-a]pyridin-6-yl)-N-methylbenzamide] are < 30 nM, 30 to 59 nM, 30 to 59 nM and > 50000 nM.
The corresponding values for `Cc1ccc2nnc(Sc3ccc4nc(NC(=O)C5CC5)cn4n3)n2c1` [Compound 42, N-(6-(6-methyl-[1,2,4]triazolo[4,3-a]pyridin-3-ylthio)imidazo[1,2-b]pyridazin-2-yl)cyclopropanecarboxamide] are 60 to 100 nM, 100 to 249 nM, 35 to 99 nM and > 50000 nM.
Consider `CS(=O)(=O)c1ccc(-c2ccc3nnc(C(F)(F)c4ccc5nc(NC(=O)C6CC6)cn5n4)n3c2)cc1` [Compound 85, N-(6-(difluoro(6-(4-(methylsulfonyl)phenyl)-[1,2,4]triazolo[4,3-a]pyridin-3-yl)methyl)imidazo[1,2-b]pyridazin-2-yl)cyclopropanecarboxamide], for which, in assay [1], the IC50 is < 30 nM. Besides, the EC50 with MKN45 (Homo sapiens, MKN-45, 96 h) is < 30 nM; in the assay on EBC1 (Homo sapiens, EBC-1, 96 h), < 30 nM; in the assay on A549 (Homo sapiens, A549, 96 h), > 50000 nM.
Regarding `N#Cc1cccc(-c2ccc3nnc(Sc4ccc5nc(NC(=O)C6CC6)cn5n4)n3c2)c1` [Compound 104, N-(6-(6-(3-cyanophenyl)-[1,2,4]triazolo[4,3-a]pyridin-3-ylthio)imidazo[1,2-b]pyridazin-2-yl)cyclopropanecarboxamide], the IC50 in assay [1] was < 30 nM. The EC50 was < 30 nM in the assay with MKN45 (Homo sapiens, MKN-45, 96 h); < 30 nM in the assay with EBC1 (Homo sapiens, EBC-1, 96 h); > 50000 nM in the assay with A549 (Homo sapiens, A549, 96 h).
As to `CC(c1ccc2nc(NC(=O)C3CC3)cn2n1)c1nnc2ccc(-c3cnn(C)c3)cn12` (stereo not drawn) [49 (free base), N-(6-(1-(6-(1-methyl-1H-pyrazol-4-yl)-[1,2,4]triazolo[4,3-a]pyridin-3-yl)ethyl)imidazo[1,2-b]pyridazin-2-yl)cyclopropanecarboxamide], the 50% inhibitory concentration (IC50) in assay [1] was < 30 nM. The values for the 50% effective concentration (EC50) in the assay on MKN45, in the assay with EBC1 and in the assay on A549 were 60 to 100 nM, < 30 nM and > 50000 nM, respectively.
`O=C(NC1CC1)c1ccc2nnc(Sc3ccc4nc(NC(=O)C5CC5)cn4n3)n2c1` [Compound 34, 3-(2-(cyclopropanecarboxamido)imidazo[1,2-b]pyridazin-6-ylthio)-N-cyclopropyl-[1,2,4]triazolo[4,3-a]pyridine-6-carboxamide] gave an IC50 in assay [1] of 60 to 100 nM. Also, the EC50 with MKN45 (Homo sapiens, MKN-45, 96 h) was > 630 nM; in the assay on EBC1 (Homo sapiens, EBC-1, 96 h) it was > 200 nM; in the assay on A549 (Homo sapiens, A549, 96 h), > 50000 nM.
As for `O=C(Nc1cn2nc(C(F)(F)c3nnc4ccc(-c5ccncc5)cn34)ccc2n1)C1CC1` [Compound 79, N-(6-(difluoro(6-(pyridin-4-yl)-[1,2,4]triazolo[4,3-a]pyridin-3-yl)methyl)imidazo[1,2-b]pyridazin-2-yl)cyclopropanecarboxamide], in assay [1], the IC50 fell in the range of 60 to 100 nM. Further, the EC50 was < 30 nM with MKN45 (Homo sapiens, MKN-45, 96 h); < 30 nM with EBC1 (Homo sapiens, EBC-1, 96 h); > 50000 nM with A549 (Homo sapiens, A549, 96 h).
With `O=C(Nc1cn2nc(C(F)(F)c3nnc4ccc(-c5cn[nH]c5)cn34)ccc2n1)C1CC1` [Compound 92, N-(6-((6-(1H-pyrazol-4-yl)-[1,2,4]triazolo[4,3-a]pyridin-3-yl)difluoromethyl)imidazo[1,2-b]pyridazin-2-yl)cyclopropanecarboxamide], in assay [1], the IC50 is < 30 nM. In addition, the EC50 is < 30 nM with MKN45 (Homo sapiens, MKN-45, 96 h); < 30 nM with EBC1 (Homo sapiens, EBC-1, 96 h); > 50000 nM in the assay with A549 (Homo sapiens, A549, 96 h).
